Measured values reported in ChEMBL document CHEMBL1201862, “PubChem BioAssay data set” (2004).
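A five-concentration, 48-hour dose response in 96-well plates underlies each endpoint, interpolated linearly between surrounding concentrations. GI50 = concentration required for 50% inhibition of growth.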 Activity calls are given as the source filed them. Cut-off read from the data, not from the text of the source: active = GI50 up to about 1.1 µM and inactive = higher.

Key:
Assay in all cases: DTP human tumour cell line panel, 48 h
Malme-3M = system: Malme-3M
EKVX = system: EKVX
SK-MEL-2 = system: SK-MEL-2
K562 = system: K562
TK-10 = system: TK-10
T47D = system: T47D
HCT-116 = system: HCT-116
OVCAR-5 = system: OVCAR-5
MDA-N = system: MDA-N
NCI-H23 = system: NCI-H23
LOX IMVI = system: LOX IMVI
NCI-H226 = system: NCI-H226
NCI-H460 = system: NCI-H460
KM12 = system: KM12
OVCAR-8 = system: OVCAR-8
SW-620 = system: SW-620
CCRF-CEM = system: CCRF-CEM
UO-31 = system: UO-31
SK-MEL-5 = system: SK-MEL-5
BT-549 = system: BT-549
ACHN = system: ACHN
RXF 393 = system: RXF 393
COLO 205 = system: COLO 205
OVCAR-3 = system: OVCAR-3
NCI/ADR-RES = system: NCI/ADR-RES
786-0 = system: 786-0
SN12C = system: SN12C
SNB-75 = system: SNB-75
MDA-MB-231 = system: MDA-MB-231
HL-60 = system: HL-60
CAKI-1 = system: CAKI-1
HCT-15 = system: HCT-15
SF-539 = system: SF-539
SF-295 = system: SF-295
MCF7 = system: MCF7
SK-MEL-28 = system: SK-MEL-28
MOLT-4 = system: MOLT-4
SK-OV-3 = system: SK-OV-3
OVCAR-4 = system: OVCAR-4
IGROV-1 = system: IGROV-1
U-251 = system: U-251
SNB-19 = system: SNB-19
HOP-92 = system: HOP-92
PC-3 = system: PC-3
MDA-MB-435 = system: MDA-MB-435
SF-268 = system: SF-268
HT-29 = system: HT-29
SR = system: SR
UACC-62 = system: UACC-62
HOP-62 = system: HOP-62
RPMI-8226 = system: RPMI-8226
NCI-H522 = system: NCI-H522
Hs-578T = system: Hs-578T
M14 = system: M14
A498 = system: A498
DU-145 = system: DU-145
HCC 2998 = system: HCC 2998
A549 = system: A549
UACC-257 = system: UACC-257

Measured: GI50

Nc1ncnc2c1ncn2[C@@H]1O[C@H](COP(=O)(O)OP(=O)(O)OC[C@H]2O[C@@H](OCCCO)[C@H](O)[C@@H]2O)[C@@H](O)[C@H]1O
60 µM: HCT-15
inactive: Malme-3M > 100 µM | EKVX > 100 µM | SK-MEL-2 > 100 µM | K562 > 100 µM | TK-10 > 100 µM | T47D > 100 µM | HCT-116 61.1 µM | OVCAR-5 > 100 µM | MDA-N 78.9 µM | NCI-H23 > 100 µM | LOX IMVI 56.8 µM | NCI-H226 > 100 µM | NCI-H460 34.6 µM | KM12 63.5 µM | OVCAR-8 > 100 µM | SW-620 > 100 µM | CCRF-CEM > 100 µM | UO-31 > 100 µM | SK-MEL-5 > 100 µM | BT-549 > 100 µM | ACHN > 100 µM | RXF 393 > 100 µM | COLO 205 > 100 µM | OVCAR-3 > 100 µM | NCI/ADR-RES > 100 µM | 786-0 > 100 µM | SN12C > 100 µM | SNB-75 > 100 µM | MDA-MB-231 > 100 µM | HL-60 > 100 µM | CAKI-1 85.9 µM | SF-539 > 100 µM | SF-295 > 100 µM | MCF7 > 100 µM | SK-MEL-28 > 100 µM | MOLT-4 > 100 µM | SK-OV-3 > 100 µM | OVCAR-4 > 100 µM | IGROV-1 > 100 µM | U-251 > 100 µM | SNB-19 76.6 µM | HOP-92 > 100 µM | PC-3 > 100 µM | MDA-MB-435 > 100 µM | SF-268 > 100 µM | HT-29 69.8 µM | SR 44.8 µM | UACC-62 > 100 µM | HOP-62 > 100 µM | RPMI-8226 > 100 µM | NCI-H522 > 100 µM | Hs-578T > 100 µM | M14 > 100 µM | A498 > 100 µM | DU-145 > 100 µM | HCC 2998 > 100 µM | A549 87.7 µM | UACC-257 > 100 µM

CC(=O)OCC1OC(n2c(-c3ccc(C)cc3)cc(-c3ccco3)c(C#N)c2=S)C(OC(C)=O)C(OC(C)=O)C1OC(C)=O (configuration not stated)
inactive: Malme-3M > 100 µM | EKVX > 100 µM | SK-MEL-2 41.7 µM | K562 > 100 µM | TK-10 52.1 µM | T47D 20.6 µM | HCT-116 29 µM | OVCAR-5 > 100 µM | MDA-N > 100 µM | NCI-H23 48 µM | LOX IMVI > 100 µM | NCI-H226 25.2 µM | NCI-H460 24.7 µM | KM12 > 100 µM | OVCAR-8 25.8 µM | SW-620 > 100 µM | CCRF-CEM > 100 µM | UO-31 28.9 µM | SK-MEL-5 65.2 µM | BT-549 38.7 µM | ACHN 75.5 µM | RXF 393 40.6 µM | COLO 205 > 100 µM | OVCAR-3 > 100 µM | NCI/ADR-RES 84.3 µM | SN12C > 100 µM | SNB-75 25.1 µM | MDA-MB-231 22.9 µM | HL-60 > 100 µM | CAKI-1 > 100 µM | SF-539 17.4 µM | SF-295 > 100 µM | MCF7 40.6 µM | SK-MEL-28 > 100 µM | MOLT-4 > 100 µM | SK-OV-3 29.9 µM | OVCAR-4 > 100 µM | IGROV-1 98.4 µM | U-251 33.8 µM | SNB-19 32.5 µM | HOP-92 16.6 µM | PC-3 > 100 µM | MDA-MB-435 > 100 µM | SF-268 56.8 µM | HT-29 > 100 µM | SR > 100 µM | UACC-62 18.2 µM | HOP-62 42.7 µM | RPMI-8226 > 100 µM | NCI-H522 50.4 µM | Hs-578T 27.9 µM | M14 83.9 µM | A498 61.7 µM | DU-145 > 100 µM | HCC 2998 > 100 µM | A549 69.5 µM | UACC-257 > 100 µM
> 100 µM: HCT-15
